Experimental data: paper PMC4245162 (ACS Chemical Biology, 2014)

Target: T1, SETD8 (Homo sapiens, UniProt Q9NQR1)
T1 sequence (Q9NQR1 191-352 isoform Q9NQR1-2): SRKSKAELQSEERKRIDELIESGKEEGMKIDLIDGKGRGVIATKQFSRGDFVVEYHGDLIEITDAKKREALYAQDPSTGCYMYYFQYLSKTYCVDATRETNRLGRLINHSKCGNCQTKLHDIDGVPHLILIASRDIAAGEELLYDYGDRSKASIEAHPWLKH
Assay: secondary radiometric filter paper assay, SETD8
Type: biochemical
Conditions: read-out: IC50 against SETD8; apparent IC50; SAM/peptide/enzyme = 0.75:1.5:1

O=C1C(SCCO)=C(SCCO)C(=O)c2ccccc21 [NSC95397]
IC50: 82 µM
